pEC50: −log10 of the molar value. The source made the active and inactive calls.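 The calls were made as follows: active = half-maximal concentration for the rise in caspase light signal at or below ten times the top tested dose; inconclusive = flat fit between 30% and 70% activity, or unreliable curve fit; inactive = the rest.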
System: MEF A1-2A-BIM cells, caspase 3/7 luminescence, 3 h
Assay: caspase activation in A1-2A-BIM MEF cells, dose response, A1 inhibitor project, cell-based, luminescence, retest (AID 2765)

CCNC(=O)CN(c1ccc(Br)c(C)c1)S(C)(=O)=O
EC50: > 35 µM (inactive)

Cc1cc(C(C#N)c2ccc(Cl)cc2)c(Cl)cc1NC(=O)c1cc(I)cc(I)c1O (stereo unspecified)
EC50: > 35 µM (inactive)

Cc1ccc(NC(=S)N(CCCN2CCCC2)Cc2cccn2Cc2ccc(Cl)cc2)cc1Cl
EC50: > 35 µM (inactive)

Cc1c(C(=O)O)cccc1N1C(=O)Nc2ccccc2N1O
EC50: > 35 µM (inactive)

CCN(CC)CCCN=C(C)c1c(O)n(-c2ccc(C)cc2)c(=O)[nH]c1=O
EC50: > 35 µM (inactive)

COc1cc(/C=C/C(=O)c2ccc([N+](=O)[O-])o2)ccc1O
EC50: > 35 µM (inactive)

O=C(NC1CCCCC1)c1cccc2c1C(=O)c1ccc(-c3ccc(OC(F)(F)F)cc3)cc1S2(=O)=O
pEC50: 4.56

O=C(CBr)Nc1c2c(nn1-c1ccccc1)CSC2
EC50: > 35 µM (inactive)

CN(C)CC#CCCCCCCC#CCN(C)C
EC50: > 35 µM (inactive)

COc1ccc2nc(SCC(=O)N3CCN(c4ccc(F)cc4)CC3)c(C#N)cc2c1
EC50: > 35 µM (inactive)

Cc1ccc(C#N)c(SCC(=O)Nc2nccs2)n1
EC50: > 35 µM (inactive)

CCN1CCN(CC(=O)Nc2cc(F)ccc2C)CC1
EC50: > 35 µM (inactive)

COc1cc2sc(-c3ccc(S(C)(=O)=O)cc3)c(C(=O)NCCCCO)c2cc1OC
EC50: > 35 µM (inactive)

Nc1nonc1-c1nc2ccccc2n1CC(=O)NC1CCCC1
EC50: > 35 µM (inactive)

CS(=O)(=O)Nc1ccc(C2=NN(S(C)(=O)=O)C(c3ccccc3)C2)cc1 (stereo unspecified)
EC50: > 35 µM (inactive)

CCN(CC)CCCNC(=S)N1CCC(c2nc3ccccc3[nH]2)CC1
EC50: > 35 µM (inactive)

CSCCC(NS(=O)(=O)c1ccc(C)cc1)C(=O)NCCc1c[nH]c2ccccc12 (stereo unspecified)
EC50: > 35 µM (inactive)

COC(=O)c1ccc(NC(=O)C2CC(=O)N(c3ccc(C)cc3)C2)cc1 (stereo unspecified)
EC50: > 35 µM (inactive)

COc1ccc(N2CC(C(=O)N[C@H](C(=O)NC(C)c3ccccc3)C(C)C)CC2=O)cc1 (stereo partly specified)
EC50: > 35 µM (inactive)

COc1ccc(OC)c(S(=O)(=O)NC(C)c2ccc(-n3ccnc3)cc2)c1 (stereo unspecified)
EC50: > 35 µM (inactive)

COc1ccc(C(=O)NNC(=O)CSc2nc3c(c(=O)n(C)c(=O)n3C)n2C)cc1
EC50: > 35 µM (inactive)

COc1ccc(N/C(=N/c2nc(C)cc(C)n2)NC(=O)Nc2ccc(Cl)c(Cl)c2)c(OC)c1
EC50: > 35 µM (inactive)

COc1ccc(S(=O)(=O)N2CC(O)CC2C(=O)OCC(=O)Nc2ccc(Cl)cn2)cc1 (stereo unspecified)
EC50: > 35 µM (inactive)

O=C(Nc1ccccc1C(=O)N1CCCCCC1)c1ccc(Cl)cc1
EC50: > 35 µM (inactive)

O=C1C2CCCN2C(c2cccc(Br)c2)N1c1ccc(F)cc1 (stereo unspecified)
EC50: > 35 µM (inactive)

CCC1(C(=O)c2ccc(Cl)cc2)C2c3ccccc3OC(=O)C21C(=O)Nc1ccccc1 (stereo unspecified)
EC50: > 35 µM (inactive)

Cc1nc(SCc2nc3c([N+](=O)[O-])cccc3[nH]2)c2oc3ccccc3c2n1
EC50: > 35 µM (inactive)

CCOc1cc(/C=C2/C(=N)N3C=CSC3=NC2=O)ccc1OCCCOc1ccccc1C
pEC50: 4.74

CC(=O)Nc1ccc(SCCN2CC[C@@H](C(C)(C)C)CCC2=O)cc1
EC50: > 35 µM (inactive)

Cc1ccc(NC(=O)CSc2nc3ccc(Nc4nc(N5CCOCC5)nc(N5CCOCC5)n4)cc3s2)cc1
pEC50: 4.83

O=C(N/C=N/OCc1ccc(Cl)cc1Cl)NOCc1ncc(C(F)(F)F)cc1Cl
EC50: > 35 µM (inactive)

O=C(NCNC(=O)NC1C(=O)NC(=O)N1CO)NC1C(=O)NC(=O)N1CO (stereo unspecified)
EC50: > 35 µM (inactive)

O=C(Nc1ccc([N+](=O)[O-])cn1)c1cc(-c2cccc(Br)c2)nc2ccccc12
EC50: > 35 µM (inactive)

O=C(Nc1ccccc1N1CCCC1)C1CCN(S(=O)(=O)c2ccc(F)cc2)CC1
EC50: > 35 µM (inactive)

O=S1(=O)C=C(Sc2nnc(-c3ccccc3)o2)c2ccccc21
EC50: > 35 µM (inactive)

CC(=O)OCCn1c2nc(=O)[nH]c(=O)c-2nc2cc(C)c(C)cc21
EC50: > 35 µM (inactive)

COc1cccc(CN(CC(=O)NC2CCCC2)C(=O)c2csnn2)c1
EC50: > 35 µM (inactive)

COc1ccc(C)cc1S(=O)(=O)n1cnc2ccccc21
EC50: > 35 µM (inactive)

COc1ccc(OC)c(C2C(C(C)=O)=C(O)C(=O)N2Cc2cccnc2)c1 (stereo unspecified)
EC50: > 35 µM (inactive)

CCCCc1ccc(NC(=O)CN(C)CC(=O)Nc2ccccc2Cl)cc1
EC50: > 35 µM (inactive)

CC(C)C(=O)n1nc(-c2cccnc2)nc1NCc1ccc(F)cc1
EC50: > 35 µM (inactive)

Cc1ccc(SCCNC(=S)Nc2cc(C)ccc2C)cc1
EC50: > 35 µM (inactive)

O=C(CCNc1n[nH]c(=O)[nH]c1=O)N/N=C/c1ccc(C(F)(F)F)cc1
EC50: > 35 µM (inactive)

COc1cc(OC)cc(C(=O)Nc2ccc(S(=O)(=O)N3CCOCC3)cc2)c1
EC50: > 35 µM (inactive)

CCOC(=O)C[C@H]1c2ccccc2S(=O)(=O)N1Cc1cccc(C(F)(F)F)c1
EC50: > 35 µM (inactive)

COC(=O)c1ccc2c(c1)C(C)(C)C(/C=C/c1ccc(O)cc1)=[N+]2C
pEC50: 4.82

CC/C(=C1/C(=O)CC(C)(C)C(C(=O)OC)C1=O)N1CCCC1 (stereo unspecified)
EC50: > 35 µM (inactive)

COc1cc(NC(=O)c2ccccc2)c(OC)cc1NC(=O)Cc1ccc(Br)cc1
EC50: > 35 µM (inactive)

N#C/C(=C\c1ccc(N2CCOCC2)o1)c1ccccc1
EC50: > 35 µM (inactive)

COc1ccc(CC(=O)Nc2ccc3c(c2)CCC3)cc1S(=O)(=O)N1CCOCC1
EC50: > 35 µM (inactive)

COc1ccc(NC(=O)c2oc3ccccc3c2NC(=O)C2CC2)cc1
EC50: > 35 µM (inactive)

CCOc1ccc(-n2c(SCC(=O)Nc3ccc(Br)cc3)nc3n[nH]c(C)c3c2=N)cc1
pEC50: 4.67

CC1COc2ccccc2N1C(=O)c1ccc(Cl)cc1 (stereo unspecified)
EC50: > 35 µM (inactive)

O=[N+]([O-])c1ccccc1S(=O)(=O)N1CCN(S(=O)(=O)c2ccc3c(c2)OCCO3)CC1
EC50: > 35 µM (inactive)

O=C(NC1CCCCC1)C(c1ccc(F)cc1)N(CCc1ccccc1)C(=O)CN1C(=O)c2ccccc2S1(=O)=O (stereo unspecified)
pEC50: 4.62

COc1ccccc1N1C(=O)c2cccc3c(Cl)ccc(c23)C1=O
EC50: > 35 µM (inactive)

O=C(Oc1cccc(/C=N/Nc2nc(Nc3ccccc3)nc(N3CCOCC3)n2)c1)c1ccco1
EC50: > 35 µM (inactive)

CCOC(=O)C1=C(C)N(C)C(=O)C1CC(=O)O (stereo unspecified)
EC50: > 35 µM (inactive)

CC1(C)OC(=O)C(=Cc2ccc(-c3ccc(S(N)(=O)=O)cc3)o2)C(=O)O1
EC50: > 35 µM (inactive)

CCOC(=O)/C(=C\c1ccc(OC)c(OC)c1)C(=O)c1cccnc1
EC50: > 35 µM (inactive)

COc1ccc(N2CCN(C3CCCN(Cc4cccc(C(C)=O)c4)C3)CC2)cc1 (stereo unspecified)
EC50: > 35 µM (inactive)

CN(c1ccccc1C(=O)Nc1cccc(C(F)(F)F)c1)S(C)(=O)=O
EC50: > 35 µM (inactive)

COc1ccc(-c2nc(NC(=O)c3n[nH]c(=O)c4ccccc34)sc2C)cc1
EC50: > 35 µM (inactive)

CC(=O)Nc1ccc(NC(=O)C(=O)NCC(c2ccco2)N2CCc3ccccc32)cc1 (stereo unspecified)
pEC50: 4.49

O=C1c2ccsc2SCCN1Cc1cccc(F)c1
EC50: > 35 µM (inactive)

O=C(NCCO)C(=O)Nc1cc2c3c(c1)CCN3C(=O)CC2
EC50: > 35 µM (inactive)

N#Cc1ccc(S(=O)(=O)N2CCC(N3CCCCC3)CC2)cc1
EC50: > 35 µM (inactive)

Cc1cccc(C)c1NC(=O)CS(=O)CC(=O)N1CCN(c2ccccc2)CC1 (stereo unspecified)
EC50: > 35 µM (inactive)

Cc1cc(N2C(=O)C=CC2=O)c([N+](=O)[O-])cc1C
EC50: > 35 µM (inactive)

COc1ccc(NC(=O)C(=O)N/N=C\c2ccc(CNC(=O)C(=O)Nc3ccc(C)c(C)c3)o2)c(OC)c1
pEC50: 4.84

Cc1ccc(Sc2ncccc2C(=O)NCc2cc([N+](=O)[O-])ccc2O)cc1C
EC50: > 35 µM (inactive)

Cc1ccc(N(Cc2cc(=O)[nH]c3ccccc23)C(=O)CCl)cc1
EC50: > 35 µM (inactive)

O=C(Nc1ccc(-c2nc3cc(NC(=O)c4cccs4)ccc3o2)cc1)c1cccs1
EC50: > 35 µM (inactive)

COc1ccc(OC)c2sc(N(CCCN(C)C)C(=O)c3ccc(S(=O)(=O)N4CCc5ccccc5C4)cc3)nc12
EC50: > 35 µM (inactive)

O=C(CSc1nnc(-c2ccncc2)o1)Nc1ccc(F)c(F)c1
EC50: > 35 µM (inactive)

CN1CCc2cccc(Cl)c2CC1
EC50: > 35 µM (inactive)

Cc1ccc(Cl)cc1NC(=O)CC1NC2CCCCC2NC1=O (stereo unspecified)
EC50: > 35 µM (inactive)

CCN(CC(=O)Nc1c(F)cccc1F)C(=O)/C=C/c1ccc(C)cc1
EC50: > 35 µM (inactive)

COc1ccc2sc(N(CCCN(C)C)C(=O)c3ccc(S(=O)(=O)N4CCc5ccccc5C4)cc3)nc2c1
pEC50: 4.53

COCCNC(=O)C(c1ccco1)N(C(=O)Cn1nnc2ccccc21)c1ccc(C)cc1C (stereo unspecified)
EC50: > 35 µM (inactive)

Cc1ccc2c(c1)c(C1=c3ccccc3=NC1=O)c(O)n2C
EC50: > 35 µM (inactive)

CN(C(=O)CSc1nnc(C(F)(F)F)n1N)C1CCS(=O)(=O)C1 (stereo unspecified)
EC50: > 35 µM (inactive)

Cc1cc(C)cc(N=Cc2c(O)c3ccccc3oc2=O)c1
EC50: > 35 µM (inactive)

Nc1cn(C2OC(CO)C(O)C2O)c(=O)[nH]c1=O (stereo unspecified)
EC50: > 35 µM (inactive)

Cc1cc(C)cc(NC(=O)CCN2CCCC2)c1
EC50: > 35 µM (inactive)

Cc1ccc(N=C2C(=O)Nc3ccccc32)cc1
EC50: > 35 µM (inactive)

COc1ccc(C2C(C(=O)c3ccc(C)o3)=C(O)C(=O)N2Cc2cccnc2)cc1OC (stereo unspecified)
EC50: > 35 µM (inactive)

COc1ccc(N2CCN(C(=O)CCn3nnc4ccccc43)CC2)cc1
EC50: > 35 µM (inactive)

COc1ccc(OC)c2[nH]c(C(=O)N3CCC(C(=O)O)CC3)cc12
EC50: > 35 µM (inactive)

CCC(Sc1nc2cc3c(cc2c(=O)n1Cc1ccco1)OCO3)C(=O)Nc1cccc(OC)c1 (stereo unspecified)
EC50: > 35 µM (inactive)

O=C(Nc1cc(Cl)ccc1N1CCOCC1)c1cccnc1
EC50: > 35 µM (inactive)

COc1ccccc1CNC(=O)COc1ccc([N+](=O)[O-])cc1
EC50: > 35 µM (inactive)

Cc1ccc(NC(=O)c2cccc(S(=O)(=O)NCc3ccccc3)c2)nc1
EC50: > 35 µM (inactive)

O=C(NNc1cc(Br)c(O)c(Br)c1)c1ccccc1
EC50: > 35 µM (inactive)

CC1CC(C)CN(C(=O)c2ccc(-c3ccc([N+](=O)[O-])cc3)o2)C1 (stereo unspecified)
EC50: > 35 µM (inactive)

O=C(c1ccccc1Br)N(Cc1ccccc1)c1ccccc1
EC50: > 35 µM (inactive)

From PubChem BioAssay AID2765 (Broad Institute, 2010)
